Measured values taken from PMC6792352, “Limited Chemical Structural Diversity Found to Modulate Thyroid Hormone Receptor in the Tox21 Chemical Library” (Environmental Health Perspectives, 2019).
Where a name gives a salt, the structure may show the parent alone.

Experiment: in vitro
Conditions: rat, gh3-tre-luc cells

Compound | CC50 at 24 h (AC50 (uM) modified / 1000) [µM] | also measured
C=CC(=O)OC [Methyl acrylate] | > 90 | 
CC(C)(C#N)N=NC(C)(C)C#N [Azobisisobutyronitrile] | > 90 | 
CNC(=S)S [Metam-sodium hydrate] |  | CC50 at 24 h (AC50 (uM) modified / 1000, Tox21_110001=Tox21_300736, viability, 1 nM T3 present, 24 h): > 90 µM
CC(C)(C)NCCO [2-(tert-Butylamino)ethanol] | > 90 | 
COC(=O)c1ccccc1C(=O)c1ccc(OCCN2CCCCC2)cc1 [Pitofenone hydrochloride] | 42.7 | 
CCCCCCCCCCCCCCCCO [1-Hexadecanol] | > 90 | 
CCCCC(CC)COCCO (centres unmarked) [2-(2-Ethylhexyloxy)ethanol] | > 90 | 
CCCCCCCCCCCCCCCCC [Heptadecane] | > 90 | 
CC(=O)OCCN(CCOC(C)=O)c1ccc(N=Nc2ccc([N+](=O)[O-])cc2C#N)cc1 [Disperse Red 82] | 54 | 
CN1C(=O)C[C@@H](C(=O)N[C@@H](Cc2c[nH]cn2)C(=O)N2CCC[C@H]2C(N)=O)NC1=O [Taltirelin] | > 50 | 
Nc1ccc(Cc2ccc(N)c(Cl)c2)cc1Cl [4,4'-Methylenebis(2-chloroaniline)] | 67.7 | 
CC(C)=CCC/C(C)=C\C#N [(2Z)-3,7-Dimethylocta-2,6-dienenitrile] | > 90 | 
CCc1ccc(O)cc1 [4-Ethylphenol] | > 90 | 
c1ccc2c(c1)Oc1ccccc1S2 [Phenoxathiin] | > 90 | 
CC1=C(/C=C/C(C)=C/C=C/C(C)=C/C=C/C=C(C)/C=C/C=C(C)/C=C/C2=C(C)C(=O)CCC2(C)C)C(C)(C)CCC1=O [Canthaxanthin] | > 50 | 
CC1(C)[C@H]2CC[C@]1(C)C(=O)C2=O [(+)Camphorquinone] | > 90 | 
O=S1(=O)c2cccc3cccc(c23)N1CCCN1CCN(c2ccc(F)cc2)CC1 [Fananserin] | > 50 | 
CCCCNc1ccc(C(=O)OCCN(C)C)cc1 [Tetracaine hydrochloride] | > 20 | 
CC/C=C\C#N [(2Z)-2-Pentenenitrile] | > 90 | 
CS(=O)(=O)c1cc(C(F)(F)F)ccc1C(=O)c1cnoc1C1CC1 [Isoxaflutole] | > 90 | 
CC[C@H](C)[C@H](N)C(=O)O (racemic) [DL-Isoleucine] | > 50 | 

Compound | CC50 at 24 h (AC50 (uM) modified / 1000) [µM] | also measured
Cc1cc(C)c(C)cc1C [1,2,4,5-Tetramethylbenzene] | > 90 | 
CCCCOCCOC(=O)COc1cc(Cl)c(Cl)cc1Cl [2,4,5-T-butotyl] | > 90 | 
C=C1/C(=C\C=C2/CCC[C@]3(C)[C@@H]([C@H](C)/C=C/[C@H](C)C(C)C)CC[C@@H]23)C[C@@H](O)C[C@@H]1O [1-alpha-Hydroxyergocalciferol] | 37.5 | 
O=C(Oc1cccc2cccnc12)c1ccccc1 [Benzoxiquine] | 12 | 
CC(C)c1cccc(C(C)C)c1N1C(=O)c2ccc(O)cc2C1=O [5HPP-33] | > 90 | 
COc1ccc(N)c(OC)c1 [2,4-Dimethoxyaniline hydrochloride] | > 50 | 
N[C@@H]1CON=C1O [Cycloserine] | > 50 | 
O=C(O)c1ccccc1Cl [2-Chlorobenzoic acid] | > 90 | 
CC(C)=CCCC(C)CCO (centres unmarked) [Citronellol] | > 100 | 
COC(=O)/C=C/C(C)=C\C=C\C(C)=C\C=C\C=C(C)\C=C\C=C(C)\C=C\C(=O)O [Bixin] | > 90 | 
O=[N+]([O-])c1ccccc1 [Nitrobenzene] | > 90 | 
CCN1C(=O)c2ccccc2C1Nc1ccc(OCCN2CCCCC2)cc1 (centres unmarked) [Etomidoline] | > 50 | 
BrCCCCCBr [Pentane,1,5-dibromo-] | > 100 | 
C=CCOc1cc(Cl)ccc1C(=O)NCCN(CC)CC [Alloclamide] | 9.52 | 
COc1ccc(Cl)cc1C(=O)NCCc1ccc(S(=O)(=O)NC(=O)NC2CCCCC2)cc1 [Glybenclamide] | > 90 | 
N[C@@H](Cc1cc(I)c(Oc2ccc(O)c(I)c2)c(I)c1)C(=O)O [3,5,3ʹ-Triiodothyronine] | > 70 | 
CCOP(=S)(OCC)Oc1cc(-c2ccccc2)on1 [Isoxathion] |  | CC50 at 24 h (AC50 (uM) modified / 1000, Tox21_110001=Tox21_302209, viability, 1 nM T3 present, 24 h): > 90 µM
COc1ccc(C(=O)NCc2ccc(OCCN(C)C)cc2)cc1OC [Itopride hydrochloride] | > 50 | 
OCCN1CCOCC1 [4-(2-Hydroxyethyl)morpholine] | > 90 | 
Sc1nnc(S)s1 [2,5-Dimercapto-1,3,4-thiadiazole] | > 90 | 
O=C(NC(=O)c1c(F)cccc1F)Nc1ccc(OC(F)(F)C(F)OC(F)(F)F)c(Cl)c1 (centres unmarked) [Novaluron] | > 50 | 

Compound | CC50 at 24 h (AC50 (uM) modified / 1000) [µM] | also measured
O[C@H]1[C@H]2[C@H](O)CCCN2C[C@H]1O [Swainsonine] |  | CC50 at 24 h (AC50 (uM) modified / 1000, Tox21_110001=Tox21_112058, viability, 1 nM T3 present, 24 h): > 50 µM
CO[Si](C)(OC)c1ccccc1 [Dimethoxy(methyl)phenylsilane] | > 90 | 
CC(C)(Oc1ccc(C2CC2(Cl)Cl)cc1)C(=O)O (centres unmarked) [Ciprofibrate] | > 90 | 
C=C(C)C(=O)OCCOC(=O)C(=C)C [Ethylene glycol dimethacrylate] | > 90 | 
CC(C)COC(=O)c1ccc(N)cc1 [Isocaine] | > 50 | 
C/C=C/C=C/CO [(2E,4E)-Hexa-2,4-dien-1-ol] | > 90 | 
Nc1ccc(C(=O)OCCCOC(=O)c2ccc(N)cc2)cc1 [Propane-1,3-diyl bis(4-aminobenzoate)] | > 90 | 
CO/N=C(\C(=O)N[C@@H]1C(=O)N2C(C(=O)O)=C(Cn3nnc(C)n3)CS[C@H]12)c1csc(N)n1 [Cefteram] | > 50 | 
CN1[C@@H]2CC[C@H]1C[C@@H](OC(c1ccccc1)c1ccc(Cl)cc1)C2 (some centres unmarked) [Clobenztropine] | 5.13 | 
O=C1c2ccccc2C(=O)C1c1nc2ccccc2c(Br)c1O [C.I. Disperse Yellow 64] | > 90 | 
Cc1cc(=O)n(-c2ccccc2)n1C [Phenazone] | > 50 | 
CC[C@H]1OC(=O)C[C@@H](O)[C@H](C)[C@@H](O[C@@H]2O[C@H](C)[C@@H](O[C@H]3C[C@@](C)(O)[C@@H](O)[C@H](C)O3)[C@H](N(C)C)[C@H]2O)[C@@H](CC=O)C[C@@H](C)C(=O)/C=C/C(C)=C/[C@@H]1CO[C@@H]1O[C@H](C)[C@@H](O)[C@@H](OC)[C@H]1OC [Tylosin tartrate] | > 50 | 
Cc1cc(C(C#N)c2ccc(Cl)cc2)c(Cl)cc1NC(=O)c1cc(I)cc(I)c1O (centres unmarked) [Closantel] | 25 | 
C=C(C)C(=O)OCCN(CC)CC [2-(Diethylamino)ethyl methacrylate] | > 90 | 
CN(C)C(=O)Nc1ccc(Cl)cc1 [Monuron] | > 90 | 
CCOP(=S)(OCC)SCn1nnc2ccccc2c1=O [Azinphos-ethyl] |  | CC50 at 24 h (AC50 (uM) modified / 1000, Tox21_110001=Tox21_301421, viability, 1 nM T3 present, 24 h): > 90 µM
CC(C)CCCC(C)NC(C)C (centres unmarked) [Iproheptine] | > 50 | 
CC1(C)S[C@@H]2[C@H](N=CN3CCCCCC3)C(=O)N2[C@H]1C(=O)O [Amdinocillin] | > 50 | 
CC1=CC(=O)[C@H]2C[C@@H]1C2(C)C [L-Verbenone] | > 90 | 
CCOC(=O)Cn1c(=O)sc2cccc(Cl)c21 [Benazolin-ethyl] | > 90 | 
CC(C)(C)C(=O)OCOC(=O)[C@@H]1N2C(=O)[C@@H](NC(=O)[C@H](N)c3ccccc3)[C@H]2SC1(C)C [Pivampicillin] | > 20 | 

Compound | CC50 at 24 h (AC50 (uM) modified / 1000) [µM] | also measured
C=CC1=C(C(=O)O)N2C(=O)[C@@H](NC(=O)/C(=N\O)c3csc(N)n3)[C@H]2SC1 [Cefdinir] | > 50 | 
CC(C)(C)c1cc([N+](=O)[O-])cc(C(C)(C)C)c1O [2,6-Di-tert-butyl-4-nitrophenol] |  | CC50 at 24 h (AC50 (uM) modified / 1000, Tox21_110001=Tox21_301750, viability, 1 nM T3 present, 24 h): 11 µM
CCOc1nc(F)cc2nc(S(=O)(=O)Nc3c(Cl)cccc3Cl)nn12 [Diclosulam] | > 90 | 
C[C@@H]1CN([C@H]2CC[C@](C#N)(c3ccc(F)cc3)CC2)CC[C@]1(C(=O)O)c1ccccc1 [Levocabastine hydrochloride] | > 20 | 
CC(C)NCC(O)c1ccc(O)c(O)c1 (centres unmarked) [Isoproterenol hydrochloride] | > 90 | 
CC(=O)C=Cc1ccccc1 [Methyl styryl ketone] |  | CC50 at 24 h (AC50 (uM) modified / 1000, Tox21_110001=Tox21_201502, viability, 1 nM T3 present, 24 h): > 90 µM
O=[N+]([O-])C(Br)Br [Dibromonitromethane] |  | CC50 at 24 h (AC50 (uM) modified / 1000, Tox21_110001=Tox21_200899, viability, 1 nM T3 present, 24 h): > 90 µM
C1=CCC(c2ccccc2)CC1 (centres unmarked) [4-Phenyl-1-cyclohexene] | > 90 | 
CC(C)c1nc(N(C)S(C)(=O)=O)nc(-c2ccc(F)cc2)c1/C=C/[C@@H](O)C[C@@H](O)CC(=O)O [Rosuvastatin calcium] | > 50 | 
NC(=O)NC(=O)Cc1ccccc1 [Phenacemide] | > 50 | 
CCCCCCCCC(=O)NCc1ccc(O)c(OC)c1 [Nonivamide] | > 90 | 
Clc1ccccc1Cl [1,2-Dichlorobenzene] | > 90 | 
C=CC(=O)OCC(CC)CCCC (centres unmarked) [2-Ethylhexyl acrylate] | > 90 | 
CC(C)(O)C(Cl)(Cl)Cl [1,1,1-Trichloro-2-methyl-2-propanol] | > 50 | 
CCCCCCCC/C=C\CCCCCCCCCCCC(=O)O [(13Z)-Docos-13-enoic acid] | > 90 | 
C=C(C)C(=O)OCCOC(=O)CC(C)=O [2-[Methacryloyloxy]ethyl acetoacetate] | > 90 | 
OC[C@H]1O[C@@H](n2cnc3c2NC=NC[C@H]3O)C[C@@H]1O [Pentostatin] | > 50 | 
CC1(C)CC(O)CC(C)(C)N1[O] [4-Hydroxy-2,2,6,6-tetramethylpiperidin-1-yl)oxidanyl] | > 90 | 
c1ccc(Nc2ccc(Nc3ccccc3)cc2)cc1 [N,N'-Diphenyl-p-phenylenediamine] | 33.3 | 
COc1ccc(-n2nc(C(F)F)cc2-c2ccc([S+](C)[O-])cc2)cc1 (centres unmarked) [Difpas-pyrazole] | > 90 | 
